Measured values taken from ChEMBL document CHEMBL5214900, “Design, Synthesis, and Biological Evaluation of Membrane-Active Bakuchiol Derivatives as Effective Broad-Spectrum Antibacterial Agents” (J Med Chem, 2021).
In brackets after ≈: the same amount, converted by molar mass.

Experiments:
Staphylococcus aureus [1] = assay: Antibacterial activity against methicillin-resistant Staphylococcus aureus N315 assessed as inhibition of bacterial growth incubated for 24 hrs by CLSI based broth dilution method; assay type: functional
Escherichia coli [2] = assay: Antibacterial activity against Escherichia coli ATCC 25922 assessed as inhibition of bacterial growth incubated for 24 hrs by CLSI based broth dilution method; assay type: functional
[3] = Hemolytic activity in rabbit RBC measured after 1 hrs by multimode reader assay; assay type: toxicity, cell-based, Oryctolagus cuniculus, Erythrocyte; conditions: rabbit red blood cells (erythrocytes)
Acinetobacter baumannii [4] = assay: Antibacterial activity against Acinetobacter baumannii R2889 assessed as inhibition of bacterial growth incubated for 24 hrs by CLSI based broth dilution method; assay type: functional
Acinetobacter baumannii [5] = assay: Antibacterial activity against Acinetobacter baumannii ATCC 17978 assessed as inhibition of bacterial growth incubated for 24 hrs by CLSI based broth dilution method; assay type: functional
Klebsiella pneumoniae [6] = assay: Antibacterial activity against Klebsiella pneumoniae ATCC 10031 assessed as inhibition of bacterial growth incubated for 24 hrs by CLSI based broth dilution method; assay type: functional
Klebsiella pneumoniae [7] = assay: Antibacterial activity against Klebsiella pneumoniae ATCC 14581 assessed as inhibition of bacterial growth incubated for 24 hrs by CLSI based broth dilution method; assay type: functional
Staphylococcus aureus [8] = assay: Antibacterial activity against Staphylococcus aureus ATCC 29213 assessed as inhibition of bacterial growth incubated for 24 hrs by CLSI based broth dilution method; assay type: functional
Pseudomonas aeruginosa = assay: Antibacterial activity against Pseudomonas aeruginosa ATCC 9027 assessed as inhibition of bacterial growth incubated for 24 hrs by CLSI based broth dilution method; assay type: functional
Staphylococcus aureus [9] = assay: Antibacterial activity against methicillin-resistant Staphylococcus aureus NCTC10442 assessed as inhibition of bacterial growth incubated for 24 hrs by CLSI based broth dilution method; assay type: functional
Escherichia coli [10] = assay: Antibacterial activity against Escherichia coli ATCC 25922 assessed as fold increase in MIC incubated for 24 hrs in presence of 1 mM Mg2+ by CLSI based broth dilution method; assay type: functional
Staphylococcus aureus [11] = assay: Antibacterial activity against Staphylococcus aureus ATCC 29213 assessed as fold increase in MIC incubated for 24 hrs in presence of 1 mM Mg2+ by CLSI based broth dilution method; assay type: functional
Staphylococcus aureus [12] = assay: Antibacterial activity against Staphylococcus aureus NCTC10442 assessed as fold increase in MIC incubated for 24 hrs in presence of 1 mM Mg2+ by CLSI based broth dilution method; assay type: functional
Escherichia coli [13] = assay: Antibacterial activity against Escherichia coli ATCC 25922 assessed as fold increase in MIC incubated for 24 hrs in presence of 140 mM Na+ by CLSI based broth dilution method; assay type: functional
Escherichia coli [14] = assay: Antibacterial activity against Escherichia coli ATCC 25922 assessed as fold increase in MIC incubated for 24 hrs in presence of 2.5 mM Ca2+ by CLSI based broth dilution method; assay type: functional
Acinetobacter baumannii [15] = assay: Antibacterial activity against Acinetobacter baumannii ATCC 17978 assessed as fold increase in MIC incubated for 24 hrs in presence of 4.5 mM K+ by CLSI based broth dilution method; assay type: functional
Escherichia coli [16] = assay: Antibacterial activity against Escherichia coli ATCC 25922 assessed as fold increase in MIC incubated for 24 hrs in presence of 4.5 mM K+ by CLSI based broth dilution method; assay type: functional
Staphylococcus aureus [17] = assay: Antibacterial activity against Staphylococcus aureus ATCC 29213 assessed as fold increase in MIC incubated for 24 hrs in presence of 2.5 mM Ca2+ by CLSI based broth dilution method; assay type: functional
Acinetobacter baumannii [18] = assay: Antibacterial activity against Acinetobacter baumannii ATCC 17978 assessed as fold increase in MIC incubated for 24 hrs in presence of 2.5 mM Ca2+ by CLSI based broth dilution method; assay type: functional
Staphylococcus aureus [19] = assay: Antibacterial activity against Staphylococcus aureus NCTC10442 assessed as fold increase in MIC incubated for 24 hrs in presence of 140 mM Na+ by CLSI based broth dilution method; assay type: functional
Staphylococcus aureus [20] = assay: Antibacterial activity against Staphylococcus aureus ATCC 29213 assessed as fold increase in MIC incubated for 24 hrs in presence of 140 mM Na+ by CLSI based broth dilution method; assay type: functional
Staphylococcus aureus [21] = assay: Antibacterial activity against Staphylococcus aureus NCTC10442 assessed as fold increase in MIC incubated for 24 hrs in presence of 4.5 mM K+ by CLSI based broth dilution method; assay type: functional
Staphylococcus aureus [22] = assay: Antibacterial activity against Staphylococcus aureus ATCC 29213 assessed as fold increase in MIC incubated for 24 hrs in presence of 4.5 mM K+ by CLSI based broth dilution method; assay type: functional
Staphylococcus aureus [23] = assay: Antibacterial activity against Staphylococcus aureus NCTC10442 assessed as fold increase in MIC incubated for 24 hrs in presence of 2.5 mM Ca2+ by CLSI based broth dilution method; assay type: functional
Acinetobacter baumannii [24] = assay: Antibacterial activity against Acinetobacter baumannii ATCC 17978 assessed as fold increase in MIC incubated for 24 hrs in presence of 140 mM Na+ by CLSI based broth dilution method; assay type: functional
Acinetobacter baumannii [25] = assay: Antibacterial activity against Acinetobacter baumannii ATCC 17978 assessed as fold increase in MIC incubated for 24 hrs in presence of 1 mM Mg2+ by CLSI based broth dilution method; assay type: functional

SMILES | MIC (Staphylococcus aureus [1]) | MIC (Escherichia coli [2]) | HC50 at 1 h [3] | MIC (Acinetobacter baumannii [4]) | MIC (Acinetobacter baumannii [5]) | MIC (Klebsiella pneumoniae [6]) | MIC (Klebsiella pneumoniae [7]) | MIC (Staphylococcus aureus [8]) | MIC (Pseudomonas aeruginosa) | MIC (Staphylococcus aureus [9]) | fold change (FC) (Escherichia coli [10]) | fold change (FC) (Staphylococcus aureus [11]) | fold change (FC) (Staphylococcus aureus [12]) | fold change (FC) (Escherichia coli [13]) | fold change (FC) (Escherichia coli [14]) | fold change (FC) (Acinetobacter baumannii [15]) | fold change (FC) (Escherichia coli [16]) | fold change (FC) (Staphylococcus aureus [17]) | fold change (FC) (Acinetobacter baumannii [18]) | fold change (FC) (Staphylococcus aureus [19]) | further results
C=C[C@@](C)(/C=C/c1ccc(O)cc1)CCC=C(C)C [BAKUCHIOL] | 3.12 µg/mL (≈ 12.2 µM) | > 100 µg/mL | 89.7 µg/mL | > 50 µg/mL | > 50 µg/mL | 12.5 µg/mL (≈ 48.8 µM) | > 50 µg/mL | 6.25 µg/mL (≈ 24.4 µM) | > 50 µg/mL | 3.12 µg/mL (≈ 12.2 µM) |  |  |  |  |  |  |  |  |  |  | 
C=C[C@@](C)(/C=C/c1ccc(OCCCCN2CCCNCCNCCCNCC2)cc1)CCC=C(C)C | 0.78 µg/mL (≈ 1.53 µM) | 3.12 µg/mL (≈ 6.12 µM) | 62.7 µg/mL | 3.12 µg/mL (≈ 6.12 µM) | 3.12 µg/mL (≈ 6.12 µM) | 1.56 µg/mL (≈ 3.05 µM) | 3.12 µg/mL (≈ 6.12 µM) | 0.78 µg/mL (≈ 1.53 µM) | 12.5 µg/mL (≈ 24.5 µM) | 0.78 µg/mL (≈ 1.53 µM) | <2 | <2 | <2 | <2 | <2 | <2 | <2 | <2 | <2 | <2 | fold change (FC) (Staphylococcus aureus [20]): <2; fold change (FC) (Staphylococcus aureus [21]): <2; fold change (FC) (Staphylococcus aureus [22]): <2; fold change (FC) (Staphylococcus aureus [23]): <2; fold change (FC) (Acinetobacter baumannii [24]): <2; fold change (FC) (Acinetobacter baumannii [25]): <2
CC[C@H](C)[C@H](NC(=O)CN)C(=O)NCC(=O)N[C@@H](C)C(=O)N[C@H](C(=O)N[C@@H](CC(C)C)C(=O)N[C@@H](CCCCN)C(=O)N[C@H](C(=O)N[C@@H](CC(C)C)C(=O)N[C@H](C(=O)N[C@H](C(=O)NCC(=O)N[C@@H](CC(C)C)C(=O)N1CCC[C@H]1C(=O)N[C@@H](C)C(=O)N[C@@H](CC(C)C)C(=O)N[C@H](C(=O)N[C@@H](CO)C(=O)N[C@@H](Cc1c[nH]c2ccccc12)C(=O)N[C@H](C(=O)N[C@@H](CCCCN)C(=O)N[C@@H](CCCNC(=N)N)C(=O)N[C@@H](CCCCN)C(=O)N[C@@H](CCCNC(=N)N)C(=O)N[C@@H](CCC(N)=O)C(=O)N[C@@H](CCC(N)=O)C(N)=O)[C@@H](C)CC)[C@@H](C)CC)[C@@H](C)O)[C@@H](C)O)C(C)C)C(C)C [MELITTIN] |  |  |  | 3.12 µg/mL (≈ 1.1 µM) | 3.12 µg/mL (≈ 1.1 µM) | 6.25 µg/mL (≈ 2.2 µM) | 6.25 µg/mL (≈ 2.2 µM) |  |  |  |  |  |  |  |  |  |  |  |  |  | 
C=C[C@@](C)(/C=C/c1ccc(OCCCCN2CCN(CCCN(C)C)CC2)cc1)CCC=C(C)C | 0.78 µg/mL (≈ 1.62 µM) | 3.12 µg/mL (≈ 6.49 µM) | 52 µg/mL | 6.25 µg/mL (≈ 13 µM) | 6.25 µg/mL (≈ 13 µM) | 1.56 µg/mL (≈ 3.24 µM) | 1.56 µg/mL (≈ 3.24 µM) | 1.56 µg/mL (≈ 3.24 µM) | 50 µg/mL (≈ 104 µM) | 3.12 µg/mL (≈ 6.49 µM) |  |  |  |  |  |  |  |  |  |  | 
C=C[C@@](C)(/C=C/c1ccc(OCCCCN2CCNCCNCCNCCNCC2)cc1)CCC=C(C)C | 0.78 µg/mL (≈ 1.48 µM) | 6.25 µg/mL (≈ 11.9 µM) | 75.2 µg/mL |  |  |  |  | 1.56 µg/mL (≈ 2.97 µM) |  | 1.56 µg/mL (≈ 2.97 µM) | <2 | <2 | <2 | <2 | <2 | <2 | <2 | <2 | <2 | <2 | fold change (FC) (Staphylococcus aureus [20]): <2; fold change (FC) (Staphylococcus aureus [21]): <2; fold change (FC) (Staphylococcus aureus [22]): <2; fold change (FC) (Staphylococcus aureus [23]): <2; fold change (FC) (Acinetobacter baumannii [24]): <2; fold change (FC) (Acinetobacter baumannii [25]): <2
C=C[C@@](C)(/C=C/c1ccc(OCCCCN(C)CCCN(C)CCCNC)cc1)CCC=C(C)C | 0.78 µg/mL (≈ 1.61 µM) | 1.56 µg/mL (≈ 3.22 µM) | 56.6 µg/mL | 3.12 µg/mL (≈ 6.46 µM) | 3.12 µg/mL (≈ 6.46 µM) | 1.56 µg/mL (≈ 3.22 µM) | 1.56 µg/mL (≈ 3.22 µM) | 1.56 µg/mL (≈ 3.22 µM) | 3.12 µg/mL (≈ 6.46 µM) | 1.56 µg/mL (≈ 3.22 µM) | <2 | <2 | <2 | <2 | <2 | <2 | <2 | <2 | <2 | <2 | fold change (FC) (Staphylococcus aureus [20]): <2; fold change (FC) (Staphylococcus aureus [21]): <2; fold change (FC) (Staphylococcus aureus [22]): <2; fold change (FC) (Staphylococcus aureus [23]): <2; fold change (FC) (Acinetobacter baumannii [24]): <2; fold change (FC) (Acinetobacter baumannii [25]): <2
C=C[C@@](C)(/C=C/c1ccc(OCCCCN(C)CCCNC)cc1)CCC=C(C)C | 0.78 µg/mL (≈ 1.89 µM) | 1.56 µg/mL (≈ 3.78 µM) | 37.4 µg/mL | 6.25 µg/mL (≈ 15.1 µM) | 1.56 µg/mL (≈ 3.78 µM) | 3.12 µg/mL (≈ 7.57 µM) | 3.12 µg/mL (≈ 7.57 µM) | 1.56 µg/mL (≈ 3.78 µM) | 6.25 µg/mL (≈ 15.1 µM) | 1.56 µg/mL (≈ 3.78 µM) |  |  |  |  |  |  |  |  |  |  | 
C=C[C@@](C)(/C=C/c1ccc(OCCCCNCCN(CCN)CCN)cc1)CCC=C(C)C | 0.78 µg/mL (≈ 1.71 µM) | 3.12 µg/mL (≈ 6.84 µM) | 32.9 µg/mL | 6.25 µg/mL (≈ 13.7 µM) | 6.25 µg/mL (≈ 13.7 µM) | 1.56 µg/mL (≈ 3.42 µM) | 1.56 µg/mL (≈ 3.42 µM) | 0.78 µg/mL (≈ 1.71 µM) | 3.12 µg/mL (≈ 6.84 µM) | 0.78 µg/mL (≈ 1.71 µM) | <2 | <2 | <2 | <2 | <2 | <2 | <2 | <2 | <2 | <2 | fold change (FC) (Staphylococcus aureus [20]): <2; fold change (FC) (Staphylococcus aureus [21]): <2; fold change (FC) (Staphylococcus aureus [22]): <2; fold change (FC) (Staphylococcus aureus [23]): <2; fold change (FC) (Acinetobacter baumannii [24]): <2; fold change (FC) (Acinetobacter baumannii [25]): <2
C=C[C@@](C)(/C=C/c1ccc(OCCCCN(C)CCCN(C)C)cc1)CCC=C(C)C | 1.56 µg/mL (≈ 3.66 µM) | 3.12 µg/mL (≈ 7.32 µM) | 32.5 µg/mL | 1.56 µg/mL (≈ 3.66 µM) | 1.56 µg/mL (≈ 3.66 µM) | 1.56 µg/mL (≈ 3.66 µM) | 1.56 µg/mL (≈ 3.66 µM) | 1.56 µg/mL (≈ 3.66 µM) | 12.5 µg/mL (≈ 29.3 µM) | 3.12 µg/mL (≈ 7.32 µM) |  |  |  |  |  |  |  |  |  |  | 
